Results taken from PMC9841530 (Journal of Medicinal Chemistry, 2022).
≈ marks a conversion by molar mass, not a printed value. Like-named read-outs stand apart in the source and are kept apart here.

What was measured:
[1] = Thermodynamic solubility in PBS; format: physicochemical; settings: for fold more soluble than Cact-3: PBS solubility vs Cact-3; for Solubility: PBS (pH 7.5), concentration after 90 min of vortexing, ND: not detected
human wild-type CFTR = human wild-type CFTR (Homo sapiens, UniProt P13569); test: YFP fluorescence quenching assay of CFTR channel activity; format: cell-based; settings: for fold less potent than Cact-3: YFP EC50 vs Cact-3
human wild-type CFTR, sequence (P13569 whole entry): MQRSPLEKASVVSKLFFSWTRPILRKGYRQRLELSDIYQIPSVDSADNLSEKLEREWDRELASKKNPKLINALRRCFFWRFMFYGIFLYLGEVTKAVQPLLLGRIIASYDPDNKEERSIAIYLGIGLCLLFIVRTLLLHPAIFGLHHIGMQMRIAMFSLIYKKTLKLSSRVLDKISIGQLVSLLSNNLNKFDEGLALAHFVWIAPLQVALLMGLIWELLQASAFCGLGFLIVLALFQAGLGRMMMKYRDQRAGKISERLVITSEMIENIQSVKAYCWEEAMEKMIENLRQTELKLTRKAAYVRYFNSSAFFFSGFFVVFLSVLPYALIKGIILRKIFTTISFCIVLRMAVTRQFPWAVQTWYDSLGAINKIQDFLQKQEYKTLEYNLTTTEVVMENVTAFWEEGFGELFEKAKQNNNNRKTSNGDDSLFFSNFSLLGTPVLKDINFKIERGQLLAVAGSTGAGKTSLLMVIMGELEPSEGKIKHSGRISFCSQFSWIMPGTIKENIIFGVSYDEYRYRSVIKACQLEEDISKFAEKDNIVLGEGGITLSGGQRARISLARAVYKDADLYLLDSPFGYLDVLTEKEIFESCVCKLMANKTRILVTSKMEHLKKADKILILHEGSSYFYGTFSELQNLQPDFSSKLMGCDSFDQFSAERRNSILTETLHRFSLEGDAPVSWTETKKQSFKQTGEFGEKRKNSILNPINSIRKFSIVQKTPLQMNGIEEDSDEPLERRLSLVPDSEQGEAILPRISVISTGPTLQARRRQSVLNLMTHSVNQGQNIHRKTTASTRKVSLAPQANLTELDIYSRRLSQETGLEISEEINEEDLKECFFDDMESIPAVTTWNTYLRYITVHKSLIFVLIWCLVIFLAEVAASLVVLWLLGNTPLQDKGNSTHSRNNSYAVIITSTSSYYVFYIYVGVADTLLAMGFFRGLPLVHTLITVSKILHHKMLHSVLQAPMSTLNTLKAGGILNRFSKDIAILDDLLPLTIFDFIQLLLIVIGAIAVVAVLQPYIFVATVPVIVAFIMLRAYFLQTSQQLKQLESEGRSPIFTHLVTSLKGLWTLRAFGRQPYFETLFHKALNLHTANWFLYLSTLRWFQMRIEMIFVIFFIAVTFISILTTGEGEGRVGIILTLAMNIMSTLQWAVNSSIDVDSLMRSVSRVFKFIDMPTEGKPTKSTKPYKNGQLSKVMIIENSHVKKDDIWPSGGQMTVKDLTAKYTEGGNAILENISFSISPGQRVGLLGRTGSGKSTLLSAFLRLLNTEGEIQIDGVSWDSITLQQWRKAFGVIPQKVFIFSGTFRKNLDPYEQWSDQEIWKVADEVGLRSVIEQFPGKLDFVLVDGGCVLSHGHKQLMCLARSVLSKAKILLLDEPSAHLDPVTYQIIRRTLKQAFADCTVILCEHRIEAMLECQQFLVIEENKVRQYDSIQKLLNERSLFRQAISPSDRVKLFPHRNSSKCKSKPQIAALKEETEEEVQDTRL

[2] = Maximum solubility for eye drop administration; format: physicochemical
[3] = system: normal female C57BL/6J mice; test: Tear volume in normal mice; format: in vivo, mouse; settings: for effect on tear volume: 16d up to 1 mM, Cact-3 up to 72 μM
[4] = format: in vivo, New Zealand White Rabbit; settings: rabbit; for AUC0-24 / AUC0-inf / AUC0-last: 0.1 mg/eye
[5] = system: volume-regulated anion channel (VRAC); test: VRAC activity by YFP fluorescence quenching assay; format: cell-based; settings: 16d 30 μM, VI-116 10 μM; hypotonic solution 5 min
TNF-α mRNA = settings: mouse, in vivo
[6] = system: scopolamine-induced dry eye mouse model; test: Tear volume in scopolamine-induced dry eye mouse model; format: in vivo; settings: DED mice; 5 μL eye drops three times a day for 10 days; 16d 2060 μM, 0.3% diquafosol sodium
[7] = system: conjunctival epithelial (ConjE) cells; test: Conjunctival epithelial cytotoxicity test; format: cell-based, human; settings: 30 μM, 48 h, MTS assay
human ANO1 = biological target: T1, human ANO1 (Homo sapiens, UniProt Q5XXA6); test: ANO1 apical membrane current in FRT cells expressing human ANO1; format: cell-based; settings: 16d 30 μM, Ani9 10 μM; ANO1 activated by 100 μM ATP
T1 sequence (Q5XXA6 1-986): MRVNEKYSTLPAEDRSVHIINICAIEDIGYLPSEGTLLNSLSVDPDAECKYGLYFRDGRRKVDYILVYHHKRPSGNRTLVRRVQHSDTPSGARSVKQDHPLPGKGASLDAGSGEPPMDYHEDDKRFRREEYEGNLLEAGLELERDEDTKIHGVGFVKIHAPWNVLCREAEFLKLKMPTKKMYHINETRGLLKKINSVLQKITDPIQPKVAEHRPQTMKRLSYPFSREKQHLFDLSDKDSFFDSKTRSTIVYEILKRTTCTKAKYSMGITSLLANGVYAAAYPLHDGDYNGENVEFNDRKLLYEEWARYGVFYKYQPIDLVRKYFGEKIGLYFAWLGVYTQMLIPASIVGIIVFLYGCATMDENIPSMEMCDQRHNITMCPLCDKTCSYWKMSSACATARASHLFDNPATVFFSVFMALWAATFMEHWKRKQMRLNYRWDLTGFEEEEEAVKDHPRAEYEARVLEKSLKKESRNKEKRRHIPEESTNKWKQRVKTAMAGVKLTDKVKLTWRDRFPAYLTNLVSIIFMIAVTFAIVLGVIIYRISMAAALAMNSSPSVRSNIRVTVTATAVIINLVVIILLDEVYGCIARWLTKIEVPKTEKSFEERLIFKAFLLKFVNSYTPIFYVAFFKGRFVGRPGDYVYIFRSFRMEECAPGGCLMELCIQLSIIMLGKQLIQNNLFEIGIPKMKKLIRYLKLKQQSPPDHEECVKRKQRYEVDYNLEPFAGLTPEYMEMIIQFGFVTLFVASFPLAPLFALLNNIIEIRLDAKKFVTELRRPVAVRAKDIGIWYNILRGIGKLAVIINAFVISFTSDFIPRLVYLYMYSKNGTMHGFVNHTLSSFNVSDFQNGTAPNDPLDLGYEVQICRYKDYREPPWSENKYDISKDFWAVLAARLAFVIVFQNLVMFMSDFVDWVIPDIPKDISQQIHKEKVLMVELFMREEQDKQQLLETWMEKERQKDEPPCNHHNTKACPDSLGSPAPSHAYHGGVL

IL-17 mRNA = settings: mouse, in vivo
MMP-2 mRNA = settings: mouse, in vivo
IL-1β mRNA = settings: mouse, in vivo
intracellular cAMP = test: Intracellular cAMP measurement in CHO-K1 cells; format: cell-based; settings: 30 μM, 10 min, IBMX 100 μM, compared to the control
[8] = system: corneal epithelial (CorE) cells; test: Corneal epithelial cytotoxicity test; format: cell-based, human; settings: 30 μM, 48 h, MTS assay
[9] = system: scopolamine-induced dry eye mouse model; test: Corneal erosion grading in scopolamine-induced dry eye mouse model; format: in vivo; settings: DED mice; 16d 2060 μM three times a day for 10 days; compared to control group
human CFTR [10] = biological target: T2, human CFTR (Homo sapiens, UniProt P13569); settings: 20 μM CFTRinh-172; CHO-K1 cells expressing human CFTR
T2 sequence (P13569 whole entry): as the sequence (P13569 whole entry) above

human CFTR [11] = biological target: T2, human CFTR; test: Apical membrane current in FRT cells expressing human CFTR; format: cell-based; settings: 10 μM CFTRinh-172
endogenous CFTR channels = endogenous CFTR channels (Homo sapiens, UniProt P13569); settings: 10 μM CFTRinh-172; primary cultured human conjunctival epithelial cells
endogenous CFTR channels, sequence (P13569 whole entry): as the sequence (P13569 whole entry) above

SMILES: COc1ccc(-c2ccnc3cc(C(=O)Nc4ccc(C(=O)O)cc4)nn23)cc1OC [9a, 4-(7-(3,4-Dimethoxyphenyl)pyrazolo[1,5-a]pyrimidine-2-carboxamido)benzoic Acid]
- fold more soluble than Cact-3 [1]: 88 fold
- fold less potent than Cact-3 (human wild-type CFTR): 17 fold

SMILES: CCOc1ccc(NC(=O)c2cc3nccc(-c4ccc(OC)c(OC)c4)n3n2)cc1 [compound 1, 7-(3,4-Dimethoxyphenyl)-N-(4-ethoxyphenyl)pyrazolo[1,5-a]pyrimidine-2-carboxamide]
- Solubility [2]: 72 µM (≈ 30.1 µg/mL)
- solubility at 90 min ([1]; PBS, pH 7.5): 0.059 µM (≈ 0.0247 µg/mL)
- time of maximal tear volume after administration ([3]; 2.5 μL eye drops, once): 3 h
- effect on tear volume [3]: dose-dependent increase

SMILES: COc1ccc(-c2ccnc3cc(C(=O)Nc4ccc(C(=O)N5CCOCC5)cc4)nn23)cc1OC [10a, 7-(3,4-Dimethoxyphenyl)-N-(4-(morpholine-4-carbonyl)phenyl)pyrazolo[1,5-a]pyrimidine-2-carboxamide]
- Solubility [1]: completely insoluble

SMILES: COc1ccc(-c2ccnc3cc(C(=O)N4CCN(C(=O)c5ccccc5)[C@@H](C)C4)nn23)cc1OC [16d, (S)-(4-Benzoyl-3-methylpiperazin-1-yl)(7-(3,4-dimethoxyphenyl)pyrazolo[1,5-a]pyrimidin-2-yl)methanone]
- AUC0-24 ([4]; mean conjunctiva): 4734.0 ng·h/mL or ng·h/g
- AUC0-inf ([4]; mean conjunctiva): 13741.0 ng·h/mL or ng·h/g
- AUC0-last ([4]; mean conjunctiva): 9819.0 ng·h/mL or ng·h/g
- AUC0-24 ([4]; mean cornea): 19409.0 ng·h/mL or ng·h/g
- AUC0-inf ([4]; mean cornea): 35802.0 ng·h/mL or ng·h/g
- AUC0-last ([4]; mean cornea): 28349.0 ng·h/mL or ng·h/g
- adverse effects during the PK study ([4]; topical ocular administration 0.1 mg/eye): No adverse effects
- period maintained in cornea and conjunctiva ([4]; cornea and conjunctiva): > 8 h
- effect on VRAC channel activity [5]: did not affect
- Solubility [2]: > 2000 µM
- mRNA expression level of TNF-α (TNF-α mRNA): significantly decreased
- effect on scopolamine-induced tear volume decrease [6]: significantly and almost completely restored
- effect on cell viability of ConjE [7]: did not affect
- effect on ANO1 channel activity (human ANO1): did not affect
- mRNA expression level of IL-17 (IL-17 mRNA): significantly decreased
- mRNA expression level of MMP-2 (MMP-2 mRNA): significantly decreased
- mRNA expression level of IL-1β (IL-1β mRNA): significantly decreased
- effect on intracellular cAMP level (intracellular cAMP): slightly increased
- effect on cell viability of CorE [8]: did not affect
- effect on corneal erosion [9]: significantly reduced
- Emax (tear volume) [3]: higher than Cact-3
- effect on tear volume [3]: dose-dependent increase

SMILES: COc1ccc(-c2ccnc3cc(C(=O)NCc4ccc(N5CCOCC5)cc4)nn23)cc1OC [5h, 7-(3,4-Dimethoxyphenyl)-N-(4-morpholinobenzyl)pyrazolo[1,5-a]pyrimidine-2-carboxamide]
- fold less potent than 5f (human wild-type CFTR; YFP EC50 vs 5f): 101 fold

SMILES: COc1ccc(-c2ccnc3cc(C(=O)Nc4ccc(OCCN5CCOCC5)cc4)nn23)cc1OC [5e, 7-(3,4-Dimethoxyphenyl)-N-(4-(2-morpholinoethoxy)phenyl)pyrazolo[1,5-a]pyrimidine-2-carboxamide]
- Solubility [1]: completely insoluble

SMILES: COc1ccc(-c2ccnc3cc(C(=O)Nc4ccc(C(=O)N5CCN(C)CC5)cc4)nn23)cc1OC.Cl [11c, 7-(3,4-Dimethoxyphenyl)-N-(4-(4-methylpiperazine-1-carbonyl)phenyl)pyrazolo[1,5-a]pyrimidine-2-carboxamide Hydrochloride]
- fold more soluble than Cact-3 [1]: 4017 fold
- fold more potent than 11a (human wild-type CFTR; YFP EC50 vs 11a): 13 fold
- fold less potent than Cact-3 (human wild-type CFTR): 16 fold

SMILES: COc1ccc(-c2ccnc3cc(C(=O)N4CCN(C(=O)c5ccccc5)CC4)nn23)cc1OC [16b, (4-Benzoylpiperazin-1-yl)(7-(3,4-dimethoxyphenyl)pyrazolo[1,5-a]pyrimidin-2-yl)methanone]
- fold more potent than 16a (human wild-type CFTR; YFP EC50 vs 16a): 7 fold

SMILES: O=c1ccn([C@@H]2O[C@H](COP(=O)(O)OP(=O)(O)OP(=O)(O)OP(=O)(O)OC[C@H]3O[C@@H](n4ccc(=O)[nH]c4=O)[C@H](O)[C@@H]3O)[C@@H](O)[C@H]2O)c(=O)[nH]1 [diquafosol, reference compound]
- mRNA expression level of TNF-α (TNF-α mRNA): significantly reduced
- effect on scopolamine-induced tear volume decrease [6]: significant recovery
- mRNA expression level of IL-17 (IL-17 mRNA): significantly reduced
- mRNA expression level of MMP-2 (MMP-2 mRNA): significantly reduced

SMILES: O=C(O)c1ccc(/C=C2\SC(=S)N(c3cccc(C(F)(F)F)c3)C2=O)cc1 [CFTRinh-172]
- inhibition of 16d-induced CFTR whole-cell currents (human CFTR [10]): completely inhibited
- block of 16d-induced CFTR chloride current (human CFTR [11]): completely blocked
- inhibition of 16d-induced CFTR current (short-circuit current) (endogenous CFTR channels): fully inhibited

SMILES: COc1ccc(-c2ccnc3cc(C(=O)Nc4ccc(N5CCOCC5)cc4)nn23)cc1OC [5f, 7-(3,4-Dimethoxyphenyl)-N-(4-morpholinophenyl)pyrazolo[1,5-a]pyrimidine-2-carboxamide]
- Solubility [1]: completely insoluble

SMILES: COC(=O)c1ccc(CNC(=O)c2cc3nccc(-c4ccc(OC)c(OC)c4)n3n2)cc1 [5g, Methyl 4-((7-(3,4-dimethoxyphenyl)pyrazolo[1,5-a]pyrimidine-2-carboxamido)methyl)benzoate]
- fold less potent than 5d (human wild-type CFTR; YFP EC50 vs 5d): 34 fold

SMILES: COc1ccc(-c2ccnc3cc(C(=O)Nc4ccc(C(=O)O)cc4F)nn23)cc1OC [9b, 4-(7-(3,4-Dimethoxyphenyl)pyrazolo[1,5-a]pyrimidine-2-carboxamido)-3-fluorobenzoic Acid]
- solubility/YFP ratio, fold less than 9a ([1]; vs 9a): 2 fold
- times more potent than 9a (human wild-type CFTR; YFP EC50 vs 9a): 7 times
